IC50 and Activity data for 14 molecules are collected here from ChEMBL document CHEMBL5331060, “Bisindole natural products: A vital source for the development of new anticancer drugs” (Eur J Med Chem, 2022).

Test [1] has as its system MCF7. The test can be described thus: Antiproliferative activity against human MCF7 cells assessed as inhibition of cell growth incubated for 24 hrs by MTT assay. It counts as functional, cell-based. To be noted: MCF7, 24 h. (In general: Tetrazolium assays rely on reduction of a dye to a coloured formazan, in cell work by metabolically active cells.)
Test [2] can be described thus: Antiproliferative activity against mouse […] cells assessed as inhibition of cell growth. In kind it is functional, cell-based.
For test [3], the system named is A549. The test can be described thus: Antiproliferative activity against human A549 cells assessed as inhibition of cell growth incubated for 72 hrs by SRB assay. It counts as functional, cell-based. As to conditions: A549, 72 h.
Test [4] concerns MCF7. Description: Antiproliferative activity against human MCF7 cells assessed as inhibition of cell growth incubated for 72 hrs by SRB assay. In kind it is functional, cell-based. To be noted: MCF7, 72 h. A general note: Sulforhodamine B stains cellular protein and so reports cell mass.
Test [5] concerns HCT-116. The test can be described thus: Cytotoxicity against human HCT-116 cells assessed as reduction in cell viability at 20 uM measured after 48 hrs by MTS assay relative to control. It counts as functional.
For test [6], the system named is HeLa. The test can be described thus: Antiproliferative activity against human HeLa cells assessed as inhibition of cell growth incubated for 48 hrs by MTT assay. In kind it is functional, cell-based.
For test [7], the system named is MCF7. Description: Antiproliferative activity against human MCF7 cells assessed as inhibition of cell growth incubated for 48 hrs by MTT assay. It counts as functional, cell-based. As to conditions: MCF7, 48 h.
Test [8] concerns SW480. Description: Antiproliferative activity against human SW480 cells assessed as inhibition of cell growth incubated for 48 hrs by MTT assay. It counts as functional, cell-based. As to conditions: SW480, 48 h.
Test [9] concerns SMMC-7721. Description: Antiproliferative activity against human SMMC-7721 cells assessed as inhibition of cell growth incubated for 48 hrs by MTS assay. To be noted: SMMC-7721, 48 h. It counts as functional, cell-based.
In test [10] the test system is HT-29. Description: Antiproliferative activity against human HT-29 cells assessed as inhibition of cell growth incubated for 48 hrs by MTS assay. It counts as functional, cell-based. As to conditions: HT-29, 48 h.
The subject of test [11] is A549. Description: Antiproliferative activity against human A549 cells assessed as inhibition of cell growth incubated for 48 hrs by MTS assay. To be noted: A549, 48 h. In kind it is functional, cell-based.
For test [12], the system named is HL-60. The test can be described thus: Antiproliferative activity against human HL-60 cells assessed as inhibition of cell growth incubated for 48 hrs by MTS assay. It counts as functional, cell-based. As to conditions: HL-60, 48 h.
Test [13] concerns MCF7. The test can be described thus: Antiproliferative activity against human MCF7 cells assessed as inhibition of cell growth incubated for 48 hrs by MTS assay. In kind it is functional, cell-based. As to conditions: MCF7, 48 h.
Test [14] has as its system SW480. Description: Antiproliferative activity against human SW480 cells assessed as inhibition of cell growth incubated for 48 hrs by MTS assay. It counts as functional, cell-based. As to conditions: SW480, 48 h.
The test system of test [15] is HepG2. Description: Antiproliferative activity against human HepG2 cells assessed as inhibition of cell growth by MTT assay. It counts as functional, cell-based.
Test [16] relates to MCF7. Description: Antiproliferative activity against human MCF7 cells assessed as inhibition of cell growth by MTT assay. In kind it is functional, cell-based.
For test [17], the system named is LoVo. Description: Antiproliferative activity against human LoVo cells assessed as inhibition of cell growth by MTT assay. In kind it is functional, cell-based.
Test [18] deals with HeLa. Description: Antiproliferative activity against human HeLa cells assessed as inhibition of cell growth incubated for 6 hrs. It counts as functional, cell-based.
The test system of test [19] is HeLa. Description: Antiproliferative activity against human HeLa cells assessed as inhibition of cell growth incubated for 24 hrs. In kind it is functional, cell-based.
The test system of test [20] is KB. Description: Antiproliferative activity against drug-sensitive human KB cells assessed as inhibition of cell growth. In kind it is functional, cell-based.
Test [21] is described as follows: Antiproliferative activity against vincristine-resistant human KB cells assessed as inhibition of cell growth. It counts as functional, cell-based.
For test [22], the system named is A549. Description: Antiproliferative activity against human A549 cells assessed as inhibition of cell growth. In kind it is functional, cell-based.
The subject of test [23] is SMMC-7721. Description: Antiproliferative activity against human SMMC-7721 cells assessed as inhibition of cell growth. In kind it is functional, cell-based.
Test [24] relates to MCF7. The test can be described thus: Antiproliferative activity against human MCF7 cells assessed as inhibition of cell growth. In kind it is functional, cell-based.
Test [25] relates to SW480. The test can be described thus: Antiproliferative activity against human SW480 cells assessed as inhibition of cell growth. In kind it is functional, cell-based.

Converted amounts (≈) assume the structure as drawn.

For orientation: IC50 means the midpoint of a concentration-inhibition curve. Regarding `O=C1C[C@H]2c3ccc(O)c(O)c3[C@]3(Nc4ccccc4C3=O)[C@]23C(=O)c2ccccc2N13`, the IC50 in test [1] worked out at 78.5 µM.
For the molecule `Brc1ccc2c(-c3c[nH]c(-c4c[nH]c5cc(Br)ccc45)n3)c[nH]c2c1` [NORTOPSENTIN A], the IC50 in test [2] was 7.6 µg/mL (≈ 16.7 µM).
For `CC[C@H]1CN(C)[C@H]2Cc3c([nH]c4ccccc34)[C@H](c3c(OC)ccc4c5c([nH]c34)[C@]3(C(=O)OC)C[C@@H]4C[C@H](CC)[C@@H]3N(CC5)C4)C[C@H]1[C@@H]2C(=O)OC`, the IC50 in [3] and in [4] was 10.9 µM throughout. Also, the Activity in test [5] is listed as 40%.
With `CC[C@@]12CC(C(=O)OC)=C3Nc4cc5c(cc4[C@@]34CCN(C[C@@H]3O[C@@H]31)[C@@H]24)[C@@H]1[C@H](O5)[C@@H](O)[C@@]2(CC)CC(C(=O)OC)=C3Nc4c(cc(O)c(OC)c4OC)[C@@]34CCN1[C@@H]24`, the 50% inhibitory concentration (IC50) in test [6], in [7] and in test [8] was 1.42 µM throughout.
Consider `O=C1C[C@H]2c3cc(O)c(O)cc3[C@]3(Nc4ccccc4C3=O)[C@]23C(=O)c2ccccc2N13`, for which the IC50 in test [1] stood at 31.7 µM.
Take `CC[C@]12C=CCN3CC[C@]4(C(=C(C(=O)OC)C1)Nc1cc5c(cc14)[C@@H]1[C@H](O5)[C@@H](O)[C@@]4(CC)CC(C(=O)OC)=C5Nc6c(ccc(OC)c6OC)[C@@]56CCN1[C@@H]46)[C@@H]32`: the concentration for half-maximal inhibition (IC50) in test [9] turned out to be 0.3 µM; in [10], 0.75 µM; in test [11], 3.41 µM; in [6], 1.42 µM; in test [7], 1.42 µM; in test [8], 1.42 µM.
`CC[C@]12C=C([C@@H]3C=C[C@@]4(CC)CC(C(=O)OC)=C5Nc6ccccc6[C@@]56CCN3[C@@H]46)[C@@H](CC(C)=O)N3CC[C@]4(C(=C(C(=O)OC)C1)Nc1ccccc14)[C@@H]32`: the IC50 in [9], in test [11], in [12], in test [13] and in [14] was 13.1 µM throughout.
In the case of `CC[C@@H]1C[C@H]2C[C@](C(=O)OC)(c3cc4c(cc3OC)N(C)[C@H]3[C@@](O)(C(=O)OC)[C@H](OC(C)=O)[C@]5(CC)C=CCN6CC[C@]43[C@@H]65)c3[nH]c4ccccc4c3CC[N+]([O-])(C1)C2`, the half-inhibitory concentration (IC50) is 38.2 µM in test [15], 51.3 µM in test [16] and 65.2 µM in test [17].
As to `NC[C@@H](NC(=O)C(=O)c1c[nH]c2ccccc12)c1c[nH]c2cc(Br)ccc12`, the IC50 in [18] and in test [19] was > 200 µM each time.
Consider `N[C@H](CNC(=O)C(=O)c1c[nH]c2ccccc12)c1c[nH]c2cc(Br)ccc12`, for which the IC50 came to 165 µM in [18] and 146 µM in test [19].
With `CC[C@@]12CC(C(=O)OC)=C3Nc4cc5c(cc4[C@@]34CCN(C[C@H]3O[C@H]31)[C@@H]24)[C@@H]1[C@H](O5)[C@@H](O)[C@@]2(CC)CC(C(=O)OC)=C3Nc4c(cc(O)c(OC)c4OC)[C@@]34CC[N+]1([O-])[C@@H]24` (some centres not stated), the half-maximal inhibitory concentration (IC50) in test [6], in test [7] and in [8] was 1.42 µM in each case.
On to `C/C=C1/CN2[C@H]3Cc4c([nH]c5ccc(O)c([C@H]6Cn7c8c(c9ccccc97)CCN7CC=C[C@@]6(CC)[C@H]87)c45)[C@@H]2C[C@@H]1[C@]3(CO)C(=O)OC`, for which the IC50 in [20] and in [21] was 0.57 µM in each case.
On to `CC[C@@]12CC(C(=O)OC)=C3Nc4cc5c(cc4[C@@]34CCN(C[C@H]3O[C@H]31)[C@@H]24)[C@@H]1[C@H](O5)[C@@H](O)[C@@]2(CC)CC(C(=O)OC)=C3Nc4c(cc(O)c(OC)c4OC)[C@@]34CCN1[C@@H]24` [CONOPHYLLINE], for which the IC50 in test [22], in test [23], in test [24] and in test [25] was 0.17 µM each time.
Take `Brc1ccc2c(-c3nc(-c4c[nH]c5ccccc45)c[nH]3)c[nH]c2c1` [NORTOPSENTIN B]: in test [2], the IC50 was found to be 7.8 µg/mL (≈ 20.7 µM).
